Data taken from US20220313682A1, “Pharmaceutical Compositions of (6aS)-6-methyl-5,6,6a,7-tetrahydro-4H-dibenzo[de,g]quinoline-10,11-diol” (Aclipse One Inc., priority 2019, published 2022).

Test: Solubility in aqueous media / aqueous buffer solutions
Format: physicochemical

Row | solubility in the aqueous media at various pH (free base, aqueous media at various pH) | SMILES | solubility in the aqueous buffer solutions (hydrochloride salt, aqueous buffer solutions)
1 | – | CN1CCc2cccc3c2[C@@H]1Cc1ccc(O)c(O)c1-3.Cl [(6aS)-6-methyl-5,6,6a,7-tetrahydro-4H-dibenzo[de,g]quinoline-10,11-diol hydrochloride] | low solubility
2 | low solubility | CN1CCc2cccc3c2[C@@H]1Cc1ccc(O)c(O)c1-3 [(6aS)-6-methyl-5,6,6a,7-tetrahydro-4H-dibenzo[de,g]quinoline-10,11-diol] | –
